Where “and” joins values, the source holds several entries; their conditions need not be identical. Identical values can stand only once.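 The compound was tested at five concentrations on cells cultured in 96-well plates, with a 48-hour exposure period. Here, GI50 denotes the concentration required for 50% inhibition of growth. Definition used: TGI = concentration required for complete inhibition of growth.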
Columns and labels:
Experiment in all cases: NCI-60 cell line screen, 48 h
[1] = system: 786-0 renal
[2] = system: HOP-92 NSCLC
[3] = system: HT29 colon
[4] = system: MDA-MB-435
[5] = system: MOLT-4 leukemia
[6] = system: OVCAR-8 ovarian
[7] = system: RXF 393 renal
[8] = system: SK-MEL-28 melanoma
[9] = system: SN12C renal
[10] = system: SNB-19 CNS

Compound	GI50 [1]	TGI [1]	GI50 [2]	TGI [2]	GI50 [3]	TGI [3]	GI50 [4]	TGI [4]	GI50 [5]	TGI [5]	GI50 [6]	TGI [6]	GI50 [7]	TGI [7]	GI50 [8]	TGI [8]	GI50 [9]	TGI [9]	GI50 [10]	TGI [10]
COc1cc2nc(N3CCCN(C)CC3)nc(NC3CCN(Cc4ccccc4)CC3)c2cc1OC	1.84 µM	5.2 µM	4.12 µM	13.6 µM	1.33 µM	5.26 µM	1.74 µM	3.22 µM	1.8 µM	6.25 µM	3.26 µM	11.8 µM	1.33 µM	3.12 µM	1.88 µM	3.77 µM	6.68 µM	25 µM	4.28 µM	18.1 µM
COc1ccc2c(c1)CCC1C2CC[C@@]2(C)C1CC[C@@H]2NC(=O)Cc1ccc(O)c(O)c1 (some centres undefined)	5 µM	17.7 µM	14.2 µM	30.8 µM	10.3 µM	25.3 µM	4.63 µM	17.2 µM	2.76 µM	83 µM	8.71 µM	30.8 µM	10.7 µM	27.3 µM	9.9 µM	24.2 µM	5.79 µM	19.6 µM	13.3 µM	33.4 µM
CC(=O)O.CN1[CH-]N(Cc2ccc(C#N)cc2)c2ccccc21.[Ag+]	18.4 µM	36.7 µM	20.3 µM	40.7 µM	21.6 µM	44.4 µM	16.9 µM	32 µM	26.1 µM	68.2 µM	23.9 µM	75.9 µM	14 µM	28.3 µM	16.7 µM	32.1 µM	18.9 µM	38.4 µM	29.3 µM	> 100 µM
O=C(O)Cc1cccc2c(=O)cc(-c3ccccc3)oc12	> 250 µM	> 1000 µM	43.9 µM and 318 µM	178 µM and > 948 µM	489 µM	> 1000 µM	518 µM	> 1000 µM	288 µM	> 824 µM	84.5 µM	> 1000 µM	> 862 µM	250 µM and > 1000 µM	533 µM	> 1000 µM	508 µM	250 µM and > 964 µM	> 909 µM	> 1000 µM
O=C1Nc2c(Cl)cc(Cl)cc2/C1=N/N=C/c1ccco1		> 100 µM		> 100 µM		> 100 µM		> 100 µM		> 100 µM		> 100 µM		> 100 µM		> 100 µM		82.1 µM		> 100 µM
O=C(O)c1cccc(S(=O)(=O)NCCO)c1		> 100 µM		> 100 µM		> 100 µM		> 100 µM		> 100 µM		> 100 µM		> 100 µM		> 100 µM		> 100 µM		> 100 µM
Cc1ccc(OP(=O)(Oc2ccc(C)cc2)N2C=Cc3ccccc3C2C#N)cc1 (centres undefined)		> 100 µM		> 100 µM		> 100 µM		> 100 µM		> 100 µM		> 100 µM		> 100 µM		> 100 µM		> 100 µM		> 100 µM
CCOC(=O)c1[nH]c2cc(Cl)ccc2c1[C@@H](C(=O)NC(C)(C)C)N(CC)C(=O)CCCCC#Cc1cccc2c1CN(C1CCC(=O)NC1=O)C2=O (some centres undefined)	0.249 µM	8.63 µM	< 0.01 µM	< 0.0238 µM	2.13 µM	> 100 µM	2.34 µM	> 31.7 µM	< 0.01 µM	0.0152 µM	< 0.01 µM	35 µM	0.113 µM	3.91 µM	2.29 µM	25.5 µM	0.283 µM	> 100 µM	0.0731 µM	34.5 µM
Cc1ccc(S(=O)(=O)ON2C(=O)c3cccc4cc([N+](=O)[O-])cc(c34)C2=O)cc1		> 100 µM		> 100 µM		79.3 µM		> 100 µM		> 100 µM		> 100 µM		> 100 µM		> 100 µM		> 100 µM		> 100 µM
COc1ccc(Nc2nc(NCCNc3ccnc4cc(Cl)ccc34)nc(N3CCOCC3)n2)cc1	2.11 µM	12.3 µM	1.16 µM	13 µM	1.07 µM	3.75 µM	1.82 µM	3.49 µM	2.01 µM	11.2 µM	6.46 µM	27.4 µM	1.89 µM	8.92 µM	1.81 µM	3.28 µM	8.73 µM	23.4 µM	10.6 µM	23.6 µM
O=S(=O)(N=C1C(Cl)=C(Cl)C(=NS(=O)(=O)c2ccccc2)C(Cl)=C1Cl)c1ccccc1	22.7 µM	44.1 µM	56.9 µM	> 100 µM	15.4 µM	49.2 µM	20.1 µM	68.3 µM	27 µM	> 100 µM	17.7 µM	50.6 µM	15.8 µM	30.9 µM	20.6 µM	78.1 µM	29.9 µM	> 100 µM	38.2 µM	> 100 µM
COc1ccc(-c2ncnc3c2ncn3CC#CCCl)cc1	1.86 µM	3.93 µM	2.75 µM	11.8 µM	7.12 µM	24.6 µM	2.71 µM	11.5 µM	2.68 µM	> 100 µM	11.6 µM	> 100 µM	2.29 µM	5.94 µM	9.87 µM	21.8 µM	2.26 µM	6.32 µM	4.87 µM	18.1 µM
CN(C)c1ccc(/C=N/NC(N)=S)nc1	3.33 µM	9.68 µM	> 100 µM	> 100 µM	4.46 µM	> 100 µM	4.01 µM	> 100 µM	2.92 µM	95.1 µM	3.24 µM	> 100 µM	4.16 µM	> 100 µM	17.9 µM	> 100 µM	3.51 µM	> 100 µM	5.64 µM	> 100 µM
Cc1cc2c(F)c(Oc3ncnc(Nc4ccc(N5C[C@@H](C)N[C@@H](C)C5)cc4)c3C#N)cc(F)c2[nH]1	1.62 µM	3.64 µM	2.07 µM	8.85 µM	0.583 µM	2.49 µM	2.03 µM	4.61 µM	1.67 µM	5.44 µM	2.8 µM	9.11 µM	0.641 µM	2.44 µM	1.96 µM	3.7 µM	3.39 µM	14.3 µM	5.07 µM	18.8 µM
CCCc1nn(C)c2c(=O)[nH]c(-c3cc(S(=O)(=O)N4CCN(C)CC4)ccc3OCC)nc12	> 100 µM	> 100 µM	23.5 µM	97.5 µM	> 100 µM	> 100 µM	> 100 µM	> 100 µM	> 100 µM	> 100 µM	> 100 µM	> 100 µM	> 100 µM	> 100 µM	> 100 µM	> 100 µM	> 100 µM	> 100 µM	> 100 µM	> 100 µM
CC1SC(c2ccccc2Cl)N(NC(=O)C(O)c2ccccc2)C1=O (centres undefined)	> 100 µM	> 100 µM	> 100 µM	> 100 µM	> 100 µM	> 100 µM	> 100 µM	> 100 µM	50.4 µM	> 100 µM	> 100 µM	> 100 µM	> 100 µM	> 100 µM	> 100 µM	> 100 µM	> 100 µM	> 100 µM	> 100 µM	> 100 µM
Cc1c(CN2CCN(C(=O)[C@H](C)O)CC2)sc2c(N3CCOCC3)nc(-c3cnc(N)nc3)nc12	0.38 µM and 0.159 µM	4.72 µM and 1.11 µM	0.143 µM and 0.0181 µM	0.8 µM and 0.108 µM	0.207 µM and 0.174 µM	> 56.8 µM	0.285 µM and 0.186 µM	3.16 µM and 1.38 µM	0.175 µM and 0.139 µM	> 10 µM and 12.7 µM	0.631 µM and 0.26 µM	> 10 µM and 2.34 µM	0.0603 µM and 0.119 µM	0.443 µM and 0.543 µM	0.247 µM and 0.138 µM	5.43 µM and 0.708 µM	0.179 µM and 0.174 µM	> 100 µM	0.898 µM and 0.313 µM	> 10 µM and 6.16 µM
CC1=C(C#N)C23C(=O)N(c4ccccc4)C(=O)C2=C(O)C=CC3(O)N1Cc1ccc(Cl)cc1Cl (centres undefined)	3.99 µM	14.5 µM	3.02 µM	13.3 µM	1.97 µM	4.84 µM	1.89 µM	4.68 µM	2.92 µM	7.55 µM	3.52 µM	13.8 µM	1.87 µM	3.87 µM	1.53 µM	3.4 µM	2.4 µM	6.83 µM	3.8 µM	14.9 µM
CC(C)(C)OC(=O)C1C(=O)NC(=O)CC1CC(OCc1ccccc1)C(OCc1ccccc1)C(COCc1ccccc1)OCc1ccccc1 (centres undefined)	47.6 µM and 12.3 µM	> 100 µM		> 100 µM and 68.1 µM		> 100 µM and 23.5 µM	45.1 µM and 9.81 µM	> 100 µM and 66.1 µM	14.1 µM and 3.86 µM	> 100 µM and 28.1 µM	33.1 µM and 12 µM	> 100 µM		99.7 µM and 32.6 µM	> 100 µM and 18.7 µM	> 100 µM	95 µM and 36.4 µM	> 100 µM	77.1 µM and 35.6 µM	> 100 µM
NC(=O)c1cc(N2CC2)c([N+](=O)[O-])cc1[N+](=O)[O-]	> 200 µM	> 200 µM	> 200 µM	> 200 µM	> 200 µM	> 200 µM		> 200 µM		> 63.2 µM	> 200 µM	> 200 µM	> 200 µM	> 200 µM		> 200 µM	> 200 µM	> 200 µM	> 200 µM	> 200 µM
CSc1ccc(C2=NN(C(C)=O)C(c3ccc(-c4cc(Cl)c(Cl)cc4Cl)o3)C2)cc1 (centres undefined)	18.9 µM	32.9 µM	11.2 µM	23.6 µM	12.9 µM	26.7 µM	15.5 µM	36.4 µM	12.1 µM	35.3 µM	16.9 µM	36.9 µM	17.6 µM	35.1 µM	16.2 µM	29.7 µM	14.5 µM	27.6 µM	17.9 µM	32.3 µM
CN1C(=O)CCC(N2C(=O)c3cccc(NCCOCCOCCNC(=O)c4cc5c(o4)C(=O)c4ccccc4C5=O)c3C2=O)C1=O (centres undefined)	2.27 µM	5.64 µM	3.71 µM	13.6 µM	2.66 µM	6.98 µM	1.05 µM	2.28 µM	2.38 µM	5.8 µM	2.45 µM	14.7 µM	1.82 µM	3.79 µM	2.04 µM	4.27 µM	1.41 µM	2.79 µM	1.58 µM	5.57 µM
COc1nc(N)nc2c1ncn2C1CC(O)C(CO)O1 (centres undefined)		> 100 µM		> 100 µM		> 100 µM		> 100 µM		> 100 µM		> 100 µM		> 100 µM		> 100 µM		> 100 µM		> 100 µM
COc1ccccc1C#Cc1ccccc1C#Cc1ccc(OCCCCCCOc2ccccc2C#Cc2ccccc2C#Cc2ccccc2OC)cc1	> 100 µM	> 100 µM	90.1 µM	> 100 µM	> 100 µM	> 100 µM	> 100 µM	> 100 µM	> 100 µM	> 100 µM	> 100 µM	> 100 µM	> 100 µM	> 100 µM	> 100 µM	> 100 µM	> 100 µM	> 100 µM	> 100 µM	> 100 µM
Cc1ccc2c(C(C[N+](=O)[O-])c3ccccc3)c(-c3ccccc3)[nH]c2c1 (centres undefined)	40.3 µM	> 95 µM	11.8 µM	> 95 µM	20.9 µM	> 95 µM	4.1 µM	29.2 µM	34 µM	> 95 µM	33 µM	> 95 µM	10.5 µM	81.3 µM	> 95 µM	> 95 µM	44.1 µM	> 95 µM	43.7 µM	> 95 µM
COc1cc2nc(Nc3cccc(Cl)c3)nc(N)c2cc1OC	1.85 µM	3.73 µM	2.59 µM	14.6 µM	3.23 µM	12.4 µM	2.81 µM	9.71 µM	2.78 µM	11.4 µM	6.29 µM	22.6 µM	16.9 µM	31.3 µM	1.93 µM	3.78 µM	12 µM	24.3 µM	14.6 µM	28 µM
